Legend:
Assay type in all cases: in vivo, human
[1] = Microbial short chain fatty acids by gas chromatography; conditions: treatment group
Excerpt: Microbial production of short chain fatty acids (SCFA): SCFA can modulate intestinal inflammation by regulating epithelial barrier function. Microbial short chain fatty acids (SCFA) are extracted by methods previously described and analyzed by gas chromatography HD and found to be elevated in the treatment group

[2] = system: fatty acid binding proteins (FABPs) and glutathione S-transferase (α-GST); assay: Urine FABPs and α-GST (MILLIPLEX MAP luminex assay); conditions: treatment group
Excerpt: Glutathione S-transferases (α-GST) are enzymes present predominantly in liver, kidney and intestinal epithelial cells that are responsible for detoxification of intracellular toxins through conjugation to glutathione. In states of increased intestinal inflammation and permeability, plasma levels of (α-GST) are a peripheral marker of intestinal epithelial cell injury.

infant gut microbiome = assay: Infant fecal microbiome analysis (16S rDNA sequencing, B. infantis qPCR)
Experimental: Infant fecal samples were collected throughout the 60-day trial. Mothers collected their own fecal and breastmilk samples as well as fecal samples from their infants. They filled out weekly, biweekly and monthly health and diet questionnaires, as well as daily logs about their infant feeding and gastrointestinal tolerability (GI). Safety and tolerability were determined from maternal reports of infants' feeding, stooling frequency, and consistency (using a modified Amsterdam infant stool scale—watery, soft, formed, hard; Bekkali et al. 2009), as well as GI symptoms and health outcomes. Individual fecal samples were subjected to full microbiome analysis using Illumina sequencing based on 16S rDNA and qPCR with primers designed specifically for B. longum subsp. infantis strain.
Evaluation of EVC001 colonization. As previously described in Frese et al. (2017) (mSphere 2(6): e00501-00517) colonization is measured at baseline and post-feeding by quantitative PCR using specific primers for B. infantis. Colonization is considered when B. infantis abundance is greater than 10^5, but more preferably greater than 10^7 or 10^8 CFU/ug DNA. Colonization may also be described as a significant expansion of the total relative contribution of Bifidobacteriaceae to the infant gut microbiome.
Bacterial DNA Methods. The relative abundance of the stool bacteria at the phylum, class, order, family, and genus level was characterized by performing a sequence analysis of the V4 segment of the 16S rRNA gene using QIIME v1.9.1.

[3] = infant feces, Day 6 (Baseline), before supplementation starts on Day 7

## Bifidobacterium longum subsp. infantis EVC001 [B. infantis EVC001]
[1]
  Microbial short chain fatty acids (SCFA): elevated
[2]
  Urine levels of FABPs and α-GST: significantly reduced
Infant gut microbiome; colonized infants versus unsupplemented
  Levels of proteobacteria and enterococci: much lower levels
Infant gut microbiome; continued after supplementation ended (Day 28) while breast milk consumed
  B. infantis colonization level of infant gut: higher than 10^10 cfu/g feces
Infant gut microbiome; [3]
  Bacteroidaceae % Relative Abundance: 0.1040%
  Bifidobacteriaceae % Relative Abundance: 0.1472%
  Clostridiaceae % Relative Abundance: 0.0874%
  Enterobacteriaceae % Relative Abundance: 0.2743%
  Enterococcaceae % Relative Abundance: 0.0539%
  Lachnospiraceae % Relative Abundance: 0.0197%
  Other families % Relative Abundance: 0.1357%
  Staphylococcaceae % Relative Abundance: 0.0543%
  Streptococcaceae % Relative Abundance: 0.1169%
  Veillonellaceae % Relative Abundance: 0.0065%
Infant gut microbiome; infant feces, Day 40
  Bifidobacteriaceae % Relative Abundance: significantly higher
  Enterococcaceae % Relative Abundance: 0.0045%
  Lachnospiraceae % Relative Abundance: 0.0072%
  Other families % Relative Abundance: 0.0215%
  Staphylococcaceae % Relative Abundance: 0.0036%
  Streptococcaceae % Relative Abundance: 0.0291%
  Veillonellaceae % Relative Abundance: 0.0077%
Infant gut microbiome; infant feces, Day 40, listed as EVC001
  Bifidobacteriaceae % Relative Abundance: 0.8712%
Infant gut microbiome; infant feces, Day 60
  Enterobacteriaceae % Relative Abundance: 0.0427%
  Enterococcaceae % Relative Abundance: 0.0082%
  Lachnospiraceae % Relative Abundance: 0.0081%
  Other families % Relative Abundance: 0.02443%
  Staphylococcaceae % Relative Abundance: 0.0039%
  Streptococcaceae % Relative Abundance: 0.0277%
  Veillonellaceae % Relative Abundance: 0.0076%
Infant gut microbiome; supplemented infants, on average, regardless of birthing mode
  Gut microbiome share of B. longum subsp. infantis: greater than 70%

From patent US20210308196A1, “COMPOSITIONS AND METHODS TO PROMOTE HOST DEFENSE AND STIMULATE, EXPAND, AND/OR RESET T CELL REPERTOIRES” (EVOLVE BIOSYSTEMS, INC., priority 2018, published 2021)
